Test results published in patent publication US20250082643A1, “COMBINATION THERAPY FOR PIK3CA-ASSOCIATED DISEASES OR DISORDERS” (Faeth Therapeutics, Inc., priority 2021, published 2025).

How the values were obtained:
[1] = test system: solid tumors with PIK3CA mutations with or without PTEN loss; conditions: human, in vivo
Description: The primary objective of the study is to evaluate the safety, feasibility, and pharmacokinetic impact of intrasubject modulated dosing for serabelisib when co-administered with a study ISD in a pilot cohort of subjects with solid tumors with PIK3CA mutations with or without PTEN loss. […] For the expansion cohort, nab-paclitaxel will also be administered with serabelisib when co-administered with a study ISD. […] FIG. 4 depicts a representation of the study cohorts of the clinical trial using serabelisib in combination with an insulin suppressing diet and nab-paclitaxel in subjects with cancer.
Cohort 1a (Dose Modification): The primary objective of the study is to evaluate the safety, compliance, and pharmacokinetic (PK) impact of intrasubject modulated dosing for serabelisib in combination with a Study ISD in a pilot cohort. […] Endpoints include: ORR, defined as the proportion of subjects who have best overall response of either CR or PR, as determined by each site; Progression free survival (PFS), defined as the time from date of first dose of Study Drug (Visit 1) to the date of first evidence of disease progression or death from any cause (whichever occurs first); Overall survival (OS) and landmark survival; Duration of response (DoR); and Disease control rate (DCR; CR+PR+stable disease [SD]). […]

[2] = test system: other class I PI3K isoforms; conditions: relative to PI3Kα
[3] = biological target: mammalian target of rapamycin (mTOR) (Homo sapiens, UniProt P42345); conditions: relative to PI3Kα
PI3Kα = PI3Kα (Homo sapiens, UniProt P42336); conditions: biochemical assays; read-out: half maximal inhibitory concentration (IC50); cited from earlier work
[4] = test system: downstream signaling of PI3K; conditions: cell lines with hyperactivation of the pathway; cited from earlier work
a range of cell lines = conditions: cited from earlier work
[5] = test system: human breast cancer cells harboring mutations in the PIK3CA gene; conditions: mouse xenograft, PIK3CA-mutated human breast cancer cells; cited from earlier work
[6] = test system: renal cell carcinoma xenograft with mutations in the PTEN gene; conditions: cited from earlier work
[7] = cited from earlier work
[8] = in vitro metabolism, across test species; cited from earlier work
CYP3A4 = CYP3A4 (Homo sapiens, UniProt P08684); conditions: normalized for liver content; cited from earlier work
CYP3A4/5 [9] = conditions: cited from earlier work
CYP2D6 = CYP2D6 (Homo sapiens, UniProt P10635); conditions: cited from earlier work
CYP2C19 = CYP2C19 (Homo sapiens, UniProt P33261); conditions: cited from earlier work
CYP2C9 = CYP2C9 (Homo sapiens, UniProt P11712); conditions: cited from earlier work
CYP2C8 = CYP2C8 (Homo sapiens, UniProt P10632); conditions: cited from earlier work
CYP2B6 [10] = biological target: CYP2B6 (Homo sapiens, UniProt P20813); conditions: cited from earlier work
CYP1A2 [11] = biological target: CYP1A2 (Homo sapiens, UniProt P05177); conditions: cited from earlier work
CYP1A2 [12] = conditions: cited from earlier work
CYP2B6 [13] = conditions: cited from earlier work
CYP3A4/5 [14] = conditions: cited from earlier work; remark: listed apart in the source
[15] = biological target: organic cation transporter (OCT) 1 (Homo sapiens, UniProt O15245); conditions: cited from earlier work
OCT2 = OCT2 (Homo sapiens, UniProt O15244); conditions: cited from earlier work
[16] = biological target: breast cancer resistance protein (BCRP) (Homo sapiens, UniProt Q9UNQ0); conditions: cited from earlier work
solid tumors = conditions: cited from earlier work
[17] = oral administration, various animal species

Sequence of CYP1A2 (Homo sapiens, UniProt P05177) (P05177 whole entry): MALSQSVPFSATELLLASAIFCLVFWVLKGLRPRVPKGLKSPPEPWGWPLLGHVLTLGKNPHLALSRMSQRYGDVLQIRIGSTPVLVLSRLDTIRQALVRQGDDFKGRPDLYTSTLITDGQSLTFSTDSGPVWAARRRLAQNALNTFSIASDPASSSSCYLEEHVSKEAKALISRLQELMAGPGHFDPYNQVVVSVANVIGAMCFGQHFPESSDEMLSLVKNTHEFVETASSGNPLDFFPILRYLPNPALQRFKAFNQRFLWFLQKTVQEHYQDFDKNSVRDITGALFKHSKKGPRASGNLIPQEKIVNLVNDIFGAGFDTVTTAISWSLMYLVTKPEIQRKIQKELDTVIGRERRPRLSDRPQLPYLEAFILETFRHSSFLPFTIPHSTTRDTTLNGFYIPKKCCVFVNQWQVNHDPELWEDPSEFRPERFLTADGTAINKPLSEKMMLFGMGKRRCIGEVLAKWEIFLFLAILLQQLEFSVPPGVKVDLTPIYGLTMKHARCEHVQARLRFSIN
Sequence of CYP2C9 (P11712 whole entry): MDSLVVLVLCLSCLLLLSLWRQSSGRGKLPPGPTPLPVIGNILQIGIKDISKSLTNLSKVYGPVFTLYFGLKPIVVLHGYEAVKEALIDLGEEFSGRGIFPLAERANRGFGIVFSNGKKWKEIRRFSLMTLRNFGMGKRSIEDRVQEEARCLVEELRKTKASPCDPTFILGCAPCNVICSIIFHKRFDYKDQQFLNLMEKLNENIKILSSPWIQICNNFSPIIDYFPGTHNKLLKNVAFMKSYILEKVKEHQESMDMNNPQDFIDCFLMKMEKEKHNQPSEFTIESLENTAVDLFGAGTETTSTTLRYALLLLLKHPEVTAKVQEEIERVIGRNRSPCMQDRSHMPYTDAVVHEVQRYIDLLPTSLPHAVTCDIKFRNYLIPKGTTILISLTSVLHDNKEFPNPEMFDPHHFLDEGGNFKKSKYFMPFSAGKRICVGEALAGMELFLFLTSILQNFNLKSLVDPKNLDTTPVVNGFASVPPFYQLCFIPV
Sequence of PI3Kα (P42336 whole entry): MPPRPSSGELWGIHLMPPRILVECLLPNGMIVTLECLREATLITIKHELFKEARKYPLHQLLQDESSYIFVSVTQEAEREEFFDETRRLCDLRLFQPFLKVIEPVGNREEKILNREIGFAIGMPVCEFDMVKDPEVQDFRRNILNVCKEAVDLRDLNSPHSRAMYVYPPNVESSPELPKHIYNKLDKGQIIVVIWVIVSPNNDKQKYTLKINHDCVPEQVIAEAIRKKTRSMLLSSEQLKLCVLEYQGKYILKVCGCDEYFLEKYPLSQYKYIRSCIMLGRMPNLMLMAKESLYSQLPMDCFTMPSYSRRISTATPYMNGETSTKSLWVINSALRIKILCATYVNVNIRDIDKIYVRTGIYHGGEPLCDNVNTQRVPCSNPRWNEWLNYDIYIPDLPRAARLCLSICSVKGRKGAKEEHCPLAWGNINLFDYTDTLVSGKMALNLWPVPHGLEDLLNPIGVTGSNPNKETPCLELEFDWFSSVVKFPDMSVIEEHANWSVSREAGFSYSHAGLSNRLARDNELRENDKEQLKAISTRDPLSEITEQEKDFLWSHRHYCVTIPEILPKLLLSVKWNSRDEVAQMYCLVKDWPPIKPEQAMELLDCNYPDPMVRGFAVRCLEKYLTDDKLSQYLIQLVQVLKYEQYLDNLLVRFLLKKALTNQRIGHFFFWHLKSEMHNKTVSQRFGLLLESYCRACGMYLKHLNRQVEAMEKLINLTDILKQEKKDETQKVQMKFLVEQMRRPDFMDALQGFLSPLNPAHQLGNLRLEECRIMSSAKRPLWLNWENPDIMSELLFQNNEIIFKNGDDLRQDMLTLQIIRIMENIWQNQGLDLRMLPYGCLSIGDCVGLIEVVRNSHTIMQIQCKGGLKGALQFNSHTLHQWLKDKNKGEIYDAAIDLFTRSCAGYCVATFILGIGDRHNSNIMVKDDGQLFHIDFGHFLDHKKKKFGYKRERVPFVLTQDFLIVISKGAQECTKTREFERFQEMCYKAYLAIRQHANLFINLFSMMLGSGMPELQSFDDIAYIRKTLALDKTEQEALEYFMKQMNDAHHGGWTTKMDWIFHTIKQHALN
Sequence of PI3Kα (P27986 whole entry partner): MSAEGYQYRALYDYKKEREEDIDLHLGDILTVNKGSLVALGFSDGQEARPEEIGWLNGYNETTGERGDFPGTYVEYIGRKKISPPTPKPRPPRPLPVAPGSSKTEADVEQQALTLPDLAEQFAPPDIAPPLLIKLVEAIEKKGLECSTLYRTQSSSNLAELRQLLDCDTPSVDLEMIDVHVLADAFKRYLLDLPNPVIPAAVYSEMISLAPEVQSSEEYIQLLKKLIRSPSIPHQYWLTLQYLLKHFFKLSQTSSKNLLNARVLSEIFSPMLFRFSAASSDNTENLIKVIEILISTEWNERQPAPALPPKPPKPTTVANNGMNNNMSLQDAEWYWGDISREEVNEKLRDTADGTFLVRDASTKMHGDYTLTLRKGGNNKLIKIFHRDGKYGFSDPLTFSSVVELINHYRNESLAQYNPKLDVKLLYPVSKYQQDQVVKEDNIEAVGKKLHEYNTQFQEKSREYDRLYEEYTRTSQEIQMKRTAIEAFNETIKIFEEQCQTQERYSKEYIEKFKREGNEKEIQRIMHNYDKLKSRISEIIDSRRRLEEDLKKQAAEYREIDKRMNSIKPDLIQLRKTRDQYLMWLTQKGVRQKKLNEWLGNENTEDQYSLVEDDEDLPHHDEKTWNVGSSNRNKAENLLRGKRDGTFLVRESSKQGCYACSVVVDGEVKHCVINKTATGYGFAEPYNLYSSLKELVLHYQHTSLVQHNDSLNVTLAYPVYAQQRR
Sequence of CYP2B6 (Homo sapiens, UniProt P20813) (P20813 whole entry): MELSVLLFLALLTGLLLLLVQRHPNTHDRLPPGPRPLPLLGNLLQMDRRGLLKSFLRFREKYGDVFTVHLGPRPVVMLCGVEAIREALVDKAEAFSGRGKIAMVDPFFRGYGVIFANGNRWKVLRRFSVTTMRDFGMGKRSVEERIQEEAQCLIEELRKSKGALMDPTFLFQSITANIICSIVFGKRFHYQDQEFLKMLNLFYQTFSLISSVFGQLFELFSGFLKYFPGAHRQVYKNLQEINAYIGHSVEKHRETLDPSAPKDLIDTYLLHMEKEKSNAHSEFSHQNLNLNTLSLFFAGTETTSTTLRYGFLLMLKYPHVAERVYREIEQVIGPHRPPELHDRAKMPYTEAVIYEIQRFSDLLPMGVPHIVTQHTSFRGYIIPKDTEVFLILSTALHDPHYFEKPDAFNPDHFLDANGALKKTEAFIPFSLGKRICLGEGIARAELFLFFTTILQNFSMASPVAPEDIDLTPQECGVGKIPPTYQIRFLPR
Sequence of OCT2 (O15244 whole entry): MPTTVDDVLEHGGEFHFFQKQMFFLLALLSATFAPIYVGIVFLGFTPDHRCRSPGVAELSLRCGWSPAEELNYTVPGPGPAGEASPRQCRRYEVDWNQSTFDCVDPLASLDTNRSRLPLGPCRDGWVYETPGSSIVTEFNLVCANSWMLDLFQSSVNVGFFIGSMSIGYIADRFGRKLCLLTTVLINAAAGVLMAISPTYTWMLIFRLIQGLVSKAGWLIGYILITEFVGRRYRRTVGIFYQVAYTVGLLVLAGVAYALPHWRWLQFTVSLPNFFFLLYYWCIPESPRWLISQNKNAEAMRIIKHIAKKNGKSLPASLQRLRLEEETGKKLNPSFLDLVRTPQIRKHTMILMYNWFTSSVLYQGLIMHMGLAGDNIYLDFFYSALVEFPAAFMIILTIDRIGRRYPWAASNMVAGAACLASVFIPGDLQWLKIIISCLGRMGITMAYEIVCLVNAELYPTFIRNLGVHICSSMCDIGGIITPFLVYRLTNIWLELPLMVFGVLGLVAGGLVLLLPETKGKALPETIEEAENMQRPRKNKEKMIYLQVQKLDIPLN
Sequence of breast cancer resistance protein (BCRP) (Q9UNQ0 whole entry): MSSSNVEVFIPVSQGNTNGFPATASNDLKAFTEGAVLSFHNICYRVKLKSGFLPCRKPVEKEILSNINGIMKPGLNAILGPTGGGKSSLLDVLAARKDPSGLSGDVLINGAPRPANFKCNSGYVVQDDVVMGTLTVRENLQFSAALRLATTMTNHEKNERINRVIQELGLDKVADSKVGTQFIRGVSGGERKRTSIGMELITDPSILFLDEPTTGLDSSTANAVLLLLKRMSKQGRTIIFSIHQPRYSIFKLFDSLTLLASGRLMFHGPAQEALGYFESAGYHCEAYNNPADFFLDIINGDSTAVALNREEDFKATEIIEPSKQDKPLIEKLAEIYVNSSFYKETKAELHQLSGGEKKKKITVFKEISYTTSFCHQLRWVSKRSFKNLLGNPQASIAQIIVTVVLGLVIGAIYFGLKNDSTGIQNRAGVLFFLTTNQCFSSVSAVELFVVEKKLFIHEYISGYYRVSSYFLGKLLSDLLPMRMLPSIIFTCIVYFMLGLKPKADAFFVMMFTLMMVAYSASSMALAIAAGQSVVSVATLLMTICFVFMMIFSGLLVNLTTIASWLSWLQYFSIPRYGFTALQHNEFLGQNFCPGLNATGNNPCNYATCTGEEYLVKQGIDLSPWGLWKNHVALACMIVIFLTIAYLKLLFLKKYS
Sequence of CYP2D6 (P10635 whole entry): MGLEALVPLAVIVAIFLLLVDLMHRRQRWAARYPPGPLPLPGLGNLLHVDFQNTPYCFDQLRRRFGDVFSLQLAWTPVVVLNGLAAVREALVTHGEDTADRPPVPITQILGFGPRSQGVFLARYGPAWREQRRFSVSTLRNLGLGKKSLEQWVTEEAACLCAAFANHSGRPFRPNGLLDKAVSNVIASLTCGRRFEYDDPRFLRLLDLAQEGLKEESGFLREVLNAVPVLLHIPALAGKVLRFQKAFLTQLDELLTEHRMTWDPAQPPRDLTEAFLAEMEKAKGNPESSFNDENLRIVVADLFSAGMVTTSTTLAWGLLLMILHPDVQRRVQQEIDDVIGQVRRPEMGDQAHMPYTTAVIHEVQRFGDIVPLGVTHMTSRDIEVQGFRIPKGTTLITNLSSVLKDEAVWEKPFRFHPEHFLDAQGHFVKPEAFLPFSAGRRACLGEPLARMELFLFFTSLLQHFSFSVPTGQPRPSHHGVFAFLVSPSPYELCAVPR

Compound: Nc1nc2cc(-c3ccc4ncc(C(=O)N5CCOCC5)n4c3)ccc2o1 [serabelisib, 6-(2-Aminobenzo[d]oxazol-5-yl) imidazo[1,2-a]pyridine-3-yl morpholino methanone]
- drug accumulation between dosing cycles [1]: No meaningful drug accumulation
- selectivity over other class I PI3K isoforms [2]: > 50 fold
- selectivity over mTOR [3]: > 50 fold
- IC50 (PI3Kα): 20 nM
- downstream signaling of PI3K [4]: blocks downstream signaling of PI3K
- antiproliferative activity (a range of cell lines): demonstrates antiproliferative activity
- tumor growth inhibition [5]: strong tumor growth inhibition
- efficacy on xenograft [6]: no efficacy
- tissue distribution of radiolabeled drug ([7]; following oral dosing): well distributed to all tissues
- absorption [7, 17]: rapid absorption
- bioavailability [7, 17]: high bioavailable
- excretion ([7]; urine and feces): majority of the drug is excreted in urine and feces as the parent compound
- unique human metabolite [8]: no unique human metabolite was identified
- share of metabolism by CYP3A4 (CYP3A4): 72%
- inhibition of CYP3A4/5 (CYP3A4/5 [9]): low potential for inhibition
- inhibition of CYP2D6 (CYP2D6): low potential for inhibition
- inhibition of CYP2C19 (CYP2C19): low potential for inhibition
- inhibition of CYP2C9 (CYP2C9): low potential for inhibition
- inhibition of CYP2C8 (CYP2C8): low potential for inhibition
- inhibition of CYP2B6 (CYP2B6 [10]): low potential for inhibition
- inhibition of CYP1A2 (CYP1A2 [11]): low potential for inhibition
- induction of CYP1A2 activity (CYP1A2 [12]): does not induce
- induction of CYP2B6 activity (CYP2B6 [13]): does not induce
- induction of CYP3A4/5 activity (CYP3A4/5 [14]): does not induce
- inhibition of OCT1 [15]: inhibitor
- inhibition of OCT2 (OCT2): inhibitor
- inhibition of BCRP [16]: inhibitor
- subjects with related serious adverse events (SAEs) (solid tumors; 3CDW cohorts): 7%
- MTD (solid tumors; Phase 1 study, intermittent 3CDW schedule): 900 mg
- related adverse event: decreased appetite (solid tumors; across all doses and regimens): 23%
- related adverse event: diarrhea (solid tumors; across all doses and regimens): 31%
- related adverse event: hyperglycemia (solid tumors; across all doses and regimens): 37%
- related adverse event: increased aspartate aminotransferase (AST) (solid tumors; across all doses and regimens): 20%
- related adverse event: nausea (solid tumors; across all doses and regimens): 50%
- related adverse event: vomiting (solid tumors; across all doses and regimens): 38%
- subjects with gastrointestinal dose-limiting toxicity (DLT) (solid tumors; dose escalated from 900 mg to 1200 mg, 3CDW regimen): 2 of 3
- PK profile (solid tumors; human, in vivo): linear PK profile
- cases of drug-induced liver injury (DILI) (solid tumors; prior serabelisib clinical trials): no cases of DILI have been reported
- doses giving biologically active exposures (solid tumors; results from skin biopsy samples): > 200 mg
